From patent publication US20240002391A1, “4-ALKOXYPYRROLO[2,1-F][1,2,4]TRIAZINES AND PREPARATION AND USES THEREOF” (BioSplice Therapeutics, Inc., priority 2022, published 2024)

Molecular target: recombinant DYRK1A kinase (Homo sapiens (Human), UniProt Q13627)
Assay: DYRK1A kinase assay (Ser/Thr 18 peptide Z-lyte FRET)
Type: biochemical
Details: DYRK1A kinase activity, Z-lyte Ser/Thr 18 peptide, 15 μM ATP; method text calls the value IC50; read-out: EC50 (the source's name)
Summary of the method: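 Z-lyte FRET read-out: coumarin (Em 455) over fluorescein (Em 520) emission ratio, converted to percent phosphorylation after 1 h development. Reaction: 0.25 μg/mL kinase, 15 μM ATP, 4 μM peptide, 1 h RT with compound, duplicate wells. IC50s fitted by non-linear regression.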

First: COc1nc(NC2CCC(F)(F)CC2)nn2ccc(-c3ccc4ncnn4c3)c12 [Compound 193, 5-([1,2,4]Triazolo[1,5-a]pyridin-6-yl)-N-(4,4-difluorocyclohexyl)-4-methoxypyrrolo[2,1-f][1,2,4]triazin-2-amine]
Second: COc1nc(NC2CCC3(CC2)CN(C(C)=O)C3)nn2ccc(-c3ccc4ncnn4c3)c12 [Compound 196, 1-(7-((5-([1,2,4]Triazolo[1,5-a]pyridin-6-yl)-4-methoxypyrrolo[2,1-f][1,2,4]triazin-2-yl)amino)-2-azaspiro[3.5]nonan-2-yl)ethan-1-one]
The IC50 of the first is 18-fold higher: 19.9 nM for the first, 1.1 nM for the second. The second is the more potent here.

`COc1nc(N[C@H]2CCN(CCO)C[C@H]2F)nn2ccc(-c3ccc4nnn(CC(F)F)c4c3)c12` [Compound 756, 2-((3R,4S)-4-((5-(1-(2,2-Difluoroethyl)-1H-benzo[d][1,2,3]triazol-6-yl)-4-methoxypyrrolo[2,1-f][1,2,4]triazin-2-yl)amino)-3-fluoropiperidin-1-yl)ethan-1-ol] and `COc1nc(N[C@H]2CCN(C(C)=O)C[C@H]2F)nn2ccc(-c3ccc4nnn(CC(F)(F)F)c4c3)c12` [Compound 916, 1-((3R,4S)-3-Fluoro-4-((4-methoxy-5-(1-(2,2,2-trifluoroethyl)-1H-benzo[d][1,2,3]triazol-6-yl)pyrrolo [2,1-f][1,2,4]triazin-2-yl)amino)piperidin-1-yl)ethan-1-one] are the same in IC50: 1.4 nM for the first, 1.4 nM for the second.

Compared with `COc1nc(N[C@H]2C[C@@H](OCCO)C2)nn2ccc(-c3ccc4nnn(C)c4c3)c12` [Compound 201, 2-(cis-3-((4-Methoxy-5-(1-methyl-1H-benzo[d][1,2,3]triazol-6-yl)pyrrolo[2,1-f][1,2,4]triazin-2-yl)amino)cyclobutoxy)ethan-1-ol], `COc1nc(N[C@H]2C[C@@](C)(O)C2)nn2ccc(-c3ccc4nnn(C)c4c3)c12` [Compound 199, cis-3-((4-Methoxy-5-(1-methyl-1H-benzo[d][1,2,3]triazol-6-yl)pyrrolo[2,1-f][1,2,4]triazin-2-yl)amino)-1-methylcyclobutan-1-ol] is 2.9-fold higher in IC50: 2 nM for the first, 5.7 nM for the second.

Compared with `COc1nc(N[C@H]2C[C@@](C)(O)C2)nn2ccc(-c3cc4ncccc4[nH]3)c12` [Compound 277, cis-3-((4-Methoxy-5-(1H-pyrrolo[3,2-b]pyridin-2-yl)pyrrolo[2,1-f][1,2,4]triazin-2-yl)amino)-1-methylcyclobutan-1-ol], `COc1nc(N[C@H]2C[C@@](C)(NC(C)=O)C2)nn2ccc(-c3ccn4nccc4c3)c12` [Compound 97, N-(cis-3-((4-Methoxy-5-(pyrazolo[1,5-a]pyridin-5-yl)pyrrolo[2,1-f][1,2,4]triazin-2-yl)amino)-1-methylcyclobutyl)acetamide] is 58-fold lower in IC50: 63.3 nM for the first, 1.1 nM for the second. The second is the more potent here.

`COc1nc(N[C@H]2C[C@](C)(NC(C)=O)C2)nn2ccc(-c3cnc4nccn4c3)c12` [Compound 935, N-((1r,3r)-3-((5-(Imidazo[1,2-a]pyrimidin-6-yl)-4-methoxypyrrolo[2,1-f][1,2,4]triazin-2-yl)amino)-1-methylcyclobutyl)acetamide] and `COc1nc(N[C@H]2CC[C@](C)(OC)CC2)nn2ccc(-c3cnc4nccn4c3)c12` [Compound 954, 5-(Imidazo[1,2-a]pyrimidin-6-yl)-4-methoxy-N-((1r,4r)-4-methoxy-4-methylcyclohexyl)pyrrolo[2,1-f][1,2,4]triazin-2-amine] are within 1.5-fold of each other in IC50: 1.2 nM for the first, 0.9 nM for the second.

Going from `COc1nc(N[C@@H]2CCN(CCO)CC2(F)F)nn2ccc(-c3cc(F)c4nc(C)n(C(C)C)c4c3)c12` [Compound 549, (R)-2-(3,3-Difluoro-4-((5-(4-fluoro-1-isopropyl-2-methyl-1H-benzo[d]imidazol-6-yl)-4-methoxypyrrolo[2,1-f][1,2,4]triazin-2-yl)amino)piperidin-1-yl)ethan-1-ol] to `COc1nc(N[C@@H]2CCN(C)CC2(F)F)nn2ccc(-c3cc(F)c4nccn4c3)c12` [Compound 434, (R)—N-(3,3-Difluoro-1-methylpiperidin-4-yl)-5-(8-fluoroimidazo[1,2-a]pyridin-6-yl)-4-methoxypyrrolo[2,1-f][1,2,4]triazin-2-amine], the IC50 rises from 2.6 nM to 4.9 nM (1.9-fold).

Going from `COc1nc(N[C@H]2CCN(C)C[C@H]2F)nn2cc(F)c(-c3ccc4ncccc4c3)c12` [Compound 1057, 6-Fluoro-N-((3R,4S)-3-fluoro-1-methylpiperidin-4-yl)-4-methoxy-5-(quinolin-6-yl)pyrrolo[2,1-f][1,2,4]triazin-2-amine] to `COc1nc(N[C@@H]2CCC(=O)N(C)C2)nn2ccc(-c3ccc4ncccc4c3)c12` [Compound 1049, (R)-5-((4-Methoxy-5-(quinolin-6-yl)pyrrolo[2,1-f][1,2,4]triazin-2-yl)amino)-1-methylpiperidin-2-one], the IC50 rises from 1.7 nM to 4.9 nM (2.9-fold). The first is the more potent here.

Going from `COc1nc(N[C@H]2C[C@](C)(C(=O)NC3CC3)C2)nn2ccc(-c3ccc4nc(C)n(CC(F)F)c4c3)c12` [Compound 503, trans-N-Cyclopropyl-3-((5-(1-(2,2-difluoroethyl)-2-methyl-1H-benzo[d]imidazol-6-yl)-4-methoxypyrrolo[2,1-f][1,2,4]triazin-2-yl)amino)-1-methylcyclobutane-1-carboxamide] to `CNC(=O)[C@]1(C)C[C@@H](Nc2nc(OC)c3c(-c4ccc5nc(C)n(CC(F)F)c5c4)ccn3n2)C1` [Compound 502, trans-3-((5-(1-(2,2-Difluoroethyl)-2-methyl-1H-benzo[d]imidazol-6-yl)-4-methoxypyrrolo[2,1-f][1,2,4]triazin-2-yl)amino)-N,1-dimethylcyclobutane-1-carboxamide], the IC50 falls from 2.3 nM to 1.4 nM (1.6-fold). The second is the more potent here.

`COc1nc(N[C@@H]2COC[C@H]2O)nn2ccc(-c3ccc4nccnc4c3)c12` [Compound 1093, (3S,4R)-4-((4-Methoxy-5-(quinoxalin-6-yl)pyrrolo[2,1-f][1,2,4]triazin-2-yl)amino)tetrahydrofuran-3-ol] and `COc1nc(N[C@H]2CC[C@H](C(C)(C)O)CC2)nn2ccc(-c3ccc4nccnc4c3)c12` [Compound 342, 2-(trans-4-((4-Methoxy-5-(quinoxalin-6-yl)pyrrolo[2,1-f][1,2,4]triazin-2-yl)amino)cyclohexyl)propan-2-ol] are within 1.5-fold of each other in IC50: 4.3 nM for the first, 3.2 nM for the second.

First: COc1nc(NC2CCC(=O)N(C)C2)nn2ccc(-c3ccc4nnn(/C=C/F)c4c3)c12 (stereo not drawn) [Compound 673, (E)-5-((5-(1-(2-Fluorovinyl)-1H-benzo[d][1,2,3]triazol-6-yl)-4-methoxypyrrolo[2,1-f][1,2,4]triazin-2-yl)amino)-1-methylpiperidin-2-one]
Second: COc1nc(N[C@H]2C[C@](C)(N3CCCC3=O)C2)nn2ccc(-c3ccc4nnn(C)c4c3)c12 [Compound 223, 1-(trans-3-((4-methoxy-5-(1-methyl-1H-benzo[d][1,2,3]triazol-6-yl)pyrrolo[2,1-f][1,2,4]triazin-2-yl)amino)-1-methylcyclobutyl)pyrrolidin-2-one]
The IC50 of the first is 3.3-fold higher: 5.3 nM for the first, 1.6 nM for the second.

Going from `COc1nc(NC2CC3CC3C2)nn2ccc(-c3cnc4nccn4c3)c12` (stereo not drawn) [Compound 976, N-(Bicyclo[3.1.0]hexan-3-yl)-5-(imidazo[1,2-a]pyrimidin-6-yl)-4-methoxypyrrolo[2,1-f][1,2,4]triazin-2-amine] to `CC(=O)N1C[C@H](F)[C@H](Nc2nc(O)c3c(-c4cnc5nccn5c4)ccn3n2)C1` [Compound 263, 1-((3S,4R)-3-Fluoro-4-((4-hydroxy-5-(imidazo[1,2-a]pyrimidin-6-yl)pyrrolo[2,1-f][1,2,4]triazin-2-yl)amino)pyrrolidin-1-yl)ethan-1-one], the IC50 rises from 2.5 nM to 112 nM (45-fold). The first is the more potent here.

First: COc1nc(NC2CCN(CC(F)(F)F)CC2)nn2ccc(-c3ccc4ncccc4c3)c12 [Compound 305, 4-Methoxy-5-(quinolin-6-yl)-N-(1-(2,2,2-trifluoroethyl)piperidin-4-yl)pyrrolo[2,1-f][1,2,4]triazin-2-amine]
Second: COc1nc(NC2CCN(C(C)=O)CC2)nn2ccc(-c3ccc4nccn4c3)c12 [Compound 63, 1-(4-((5-(Imidazo[1,2-a]pyridin-6-yl)-4-methoxypyrrolo[2,1-f][1,2,4]triazin-2-yl)amino)piperidin-1-yl)ethan-1-one]
The IC50 of the first is 18-fold higher: 80.7 nM for the first, 4.6 nM for the second. The second is the more potent here.

`COc1nc(NC2CC3(CCN(C(C)=O)CC3)C2)nn2ccc(-c3ccc4nccnc4c3)c12` [Compound 386, 1-(2-((4-Methoxy-5-(quinoxalin-6-yl)pyrrolo[2,1-f][1,2,4]triazin-2-yl)amino)-7-azaspiro[3.5]nonan-7-yl)ethan-1-one] and `CCC(=O)N[C@]1(C)C[C@@H](Nc2nc(OC)c3c(-c4ccc5nnn(C)c5c4)ccn3n2)C1` [Compound 207, N-(trans-3-((4-Methoxy-5-(1-methyl-1H-benzo[d][1,2,3]triazol-6-yl)pyrrolo[2,1-f][1,2,4]triazin-2-yl)amino)-1-methylcyclobutyl)propionamide] are within 1.5-fold of each other in IC50: 0.9 nM for the first, 1.3 nM for the second.

Going from `COc1nc(N[C@H]2CC[C@](C)(O)CC2)nn2ccc(-c3ccc4nncn4c3)c12` [Compound 187, trans-4-((5-([1,2,4]Triazolo[4,3-a]pyridin-6-yl)-4-methoxypyrrolo[2,1-f][1,2,4]triazin-2-yl)amino)-1-methylcyclohexan-1-ol] to `COc1nc(N[C@H]2CC[C@](C)(O)CC2)nn2ccc(-c3ccc4nnn(C(C)C)c4c3)c12` [Compound 681, (1r,4r)-4-((5-(1-Isopropyl-1H-benzo[d][1,2,3]triazol-6-yl)-4-methoxypyrrolo[2,1-f][1,2,4]triazin-2-yl)amino)-1-methylcyclohexan-1-ol], the IC50 falls from 100 nM to 1.9 nM (53-fold).

Going from `COc1nc(N[C@@H]2CCNC[C@@H]2F)nn2ccc(-c3ccn4nccc4c3)c12` [Compound 29] to `COc1nc(N[C@H]2CCN(C3COC3)C[C@H]2F)nn2ccc(-c3ccc4nnn(C(C)C)c4c3)c12` [Compound 688, N-((3R,4S)-3-fluoro-1-(oxetan-3-yl)piperidin-4-yl)-5-(1-isopropyl-1H-benzo[d][1,2,3]triazol-6-yl)-4-methoxypyrrolo[2,1-f][1,2,4]triazin-2-amine], the IC50 falls from 9.2 nM to 2.3 nM (4-fold).
